Laboratory results reported in PubChem BioAssay AID1745844 (Carcinogenic Potency Database (CPDB), 2022).
The source made the active and inactive calls. The rule behind the calls is not given here.

System: rodent lifetime carcinogenesis bioassay, tumor incidence TD50
Assay: carcinogenic potency in animals, long-term in vivo studies, CPDB compilation (AID 1745844)

SMILES: Clc1cccc(-c2ccc(Cl)c(Cl)c2Cl)c1Cl
- TD50 (mouse, strain BALB/cJ, males, in feed, site: liver, lesion: hepatoma, dosed 26 weeks, study length 47 weeks): 64.6 mg/kg/day
- TD50 (mouse, strain BALB/cJ, males, in feed, site: liver, lesion: hepatoma, dosed 47 weeks, study length 47 weeks): 9.58 mg/kg/day
- TD50 (rat, strain Fischer 344, females, in feed, site: liver, lesion: adenoma, NOS, dosed 105 weeks, study length 105 weeks): 34.8 mg/kg/day
- carcinogen call (rat, strain Fischer 344, females, in feed, site: stomach, lesion: adenocarcinoma, NOS, dosed 105 weeks, study length 105 weeks): a
- TD50 (rat, strain Fischer 344, males, in feed, site: all sites, lesion: leukemia + lymphoma, dosed 105 weeks, study length 105 weeks): 5.94 mg/kg/day
- TD50 (rat, strain Fischer 344, males, in feed, site: all sites, lesion: leukemia, dosed 105 weeks, study length 105 weeks): 6.75 mg/kg/day
- TD50 (rat, strain Fischer 344, males, in feed, site: any site (literature study), lesion: several types, types named in the paper, dosed 105 weeks, study length 105 weeks): 3.23 mg/kg/day
- TD50 (rat, strain Fischer 344, males, in feed, site: cecum + jejunum + stomach, lesion: adenocarcinoma, NOS, dosed 105 weeks, study length 105 weeks): 34.6 mg/kg/day
- TD50 (rat, strain Fischer 344, males, in feed, site: liver, lesion: adenoma, NOS + hepatocellular carcinoma, dosed 105 weeks, study length 105 weeks): 15.1 mg/kg/day
- TD50 (rat, strain Fischer 344, males, in feed, site: liver, lesion: hepatocellular adenoma + hepatocellular carcinoma + neoplastic nodule, dosed 105 weeks, study length 105 weeks): 20.8 mg/kg/day
- TD50 (rat, strain Sprague-Dawley, females, in feed, site: liver, lesion: cholangioma, dosed 104 weeks, study length 104 weeks): 15.3 mg/kg/day
- TD50 (rat, strain Sprague-Dawley, females, in feed, site: liver, lesion: hepatocellular adenoma, dosed 104 weeks, study length 104 weeks): 3.07 mg/kg/day
- TD50 (rat, strain Sprague-Dawley, females, in feed, site: liver, lesion: hepatocellular carcinoma, dosed 104 weeks, study length 104 weeks): 28.6 mg/kg/day
- TD50 (rat, strain Sprague-Dawley, females, in feed, site: liver, lesion: several types, types named in the paper, dosed 104 weeks, study length 104 weeks): 2.82 mg/kg/day
- TD50 (rat, strain Sprague-Dawley, males, in feed, site: liver, lesion: several types, types named in the paper, dosed 104 weeks, study length 104 weeks): 55.1 mg/kg/day
- TD50 (rat, strain Sprague-Dawley, males, in feed, site: thyroid gland, lesion: follicular-cell adenoma, dosed 104 weeks, study length 104 weeks): 20.2 mg/kg/day
- TD50 (rat, strain Sprague-Dawley, males, in feed, site: thyroid gland, lesion: follicular-cell carcinoma, dosed 104 weeks, study length 104 weeks): 89 mg/kg/day
- TD50 (rat, strain Sprague-Dawley, males, in feed, site: thyroid gland, lesion: several types, types named in the paper, dosed 104 weeks, study length 104 weeks): 16.1 mg/kg/day

SMILES: C#CC(OC(N)=O)(c1ccccc1)c1ccc(Cl)cc1 (centres undefined)
- TD50 (rat, strain Harlan, males, in feed, site: any site (literature study), lesion: several types, types named in the paper, dosed 72 weeks, study length 94 weeks): 3.88 mg/kg/day
- TD50 (rat, strain Harlan, males, in feed, site: brain, lesion: several types, types named in the paper, dosed 72 weeks, study length 94 weeks): 462 mg/kg/day
- TD50 (rat, strain Harlan, males, in feed, site: duodenum, lesion: adenocarcinoma, dosed 72 weeks, study length 94 weeks): 24.9 mg/kg/day
- TD50 (rat, strain Harlan, males, in feed, site: jejunum, lesion: adenocarcinoma, dosed 72 weeks, study length 94 weeks): 8.78 mg/kg/day
- TD50 (rat, strain Harlan, males, in feed, site: liver, lesion: several types, types named in the paper, dosed 72 weeks, study length 94 weeks): 58.5 mg/kg/day

SMILES: CC(Oc1c(Cl)cccc1Cl)C1=NCCN1 (centres undefined)
- TD50 (rat, strain Long-Evans, females, in feed, site: any site (literature study), lesion: one or several types, types not named, dosed 52 weeks, study length 52 weeks): 2.3 mg/kg/day (inactive)
- TD50 (rat, strain Long-Evans, males, in feed, site: any site (literature study), lesion: one or several types, types not named, dosed 52 weeks, study length 52 weeks): 2.3 mg/kg/day (inactive)

SMILES: CCCCCCCC(=O)OCC(COC(=O)CCCCCCC)OC(=O)CCCCCCC
- TD50 (rat, strain Fischer 344, males, by gavage, site: any site (literature study), lesion: several types, types named in the paper, dosed 104 weeks, study length 104 weeks): 69900 mg/kg/day
- TD50 (rat, strain Fischer 344, males, by gavage, site: forestomach, lesion: squamous-cell papilloma, dosed 104 weeks, study length 104 weeks): 15700 mg/kg/day
- TD50 (rat, strain Fischer 344, males, by gavage, site: liver, lesion: hepatocellular adenoma + hepatoblastoma + hepatocellular carcinoma, dosed 104 weeks, study length 104 weeks): 37100 mg/kg/day
- TD50 (rat, strain Fischer 344, males, by gavage, site: liver, lesion: hepatocellular adenoma, dosed 104 weeks, study length 104 weeks): 37100 mg/kg/day
- TD50 (rat, strain Fischer 344, males, by gavage, site: pancreas, lesion: acinar-cell adenoma, dosed 104 weeks, study length 104 weeks): 5490 mg/kg/day (inactive)

SMILES: CCCCC(CC)COP(=O)(OCC(CC)CCCC)OCC(CC)CCCC (centres undefined)
- TD50 (mouse, strain B6C3F1, females, by gavage, site: liver, lesion: hepatocellular adenoma + hepatocellular carcinoma + neoplastic nodule, dosed 103 weeks, study length 104 weeks): 2220 mg/kg/day
- TD50 (mouse, strain B6C3F1, females, by gavage, site: liver, lesion: hepatocellular adenoma + hepatocellular carcinoma, dosed 103 weeks, study length 104 weeks): 2220 mg/kg/day
- TD50 (mouse, strain B6C3F1, females, by gavage, site: liver, lesion: hepatocellular carcinoma, dosed 103 weeks, study length 104 weeks): 2560 mg/kg/day
- TD50 (mouse, strain B6C3F1, females, by gavage, site: lung, lesion: alveolar/bronchiolar adenoma + alveolar/bronchiolar carcinoma, dosed 103 weeks, study length 104 weeks): 13700 mg/kg/day
- carcinogen call (mouse, strain B6C3F1, males, by gavage, site: any site (literature study), lesion: several types, types named in the paper, dosed 103 weeks, study length 104 weeks): negative (inactive)
- TD50 (mouse, strain B6C3F1, males, by gavage, site: liver, lesion: hepatocellular adenoma + hepatocellular carcinoma + neoplastic nodule, dosed 103 weeks, study length 104 weeks): 9000 mg/kg/day
- TD50 (rat, strain Fischer 344, females, by gavage, site: any site (literature study), lesion: several types, types named in the paper, dosed 103 weeks, study length 104 weeks): 230000 mg/kg/day (inactive)
- TD50 (rat, strain Fischer 344, males, by gavage, site: adrenal gland, lesion: pheochromocytoma + pheochromocytoma, malignant, dosed 103 weeks, study length 104 weeks): 5290 mg/kg/day
- TD50 (rat, strain Fischer 344, males, by gavage, site: adrenal gland, lesion: pheochromocytoma, dosed 103 weeks, study length 104 weeks): 5290 mg/kg/day
- TD50 (rat, strain Fischer 344, males, by gavage, site: any site (literature study), lesion: several types, types named in the paper, dosed 103 weeks, study length 104 weeks): 14200 mg/kg/day
- TD50 (rat, strain Fischer 344, males, by gavage, site: thyroid gland + thyroid follicle, lesion: follicular-cell adenoma + cystadenoma, NOS, dosed 103 weeks, study length 104 weeks): 28000 mg/kg/day
- TD50 (rat, strain Fischer 344, males, by gavage, site: thyroid gland + thyroid follicle, lesion: follicular-cell adenoma + follicular-cell carcinoma + cystadenoma, NOS, dosed 103 weeks, study length 104 weeks): 16700 mg/kg/day

SMILES: O=NN1CCC(O)C1 (centres undefined)
- TD50 (rat, strain Sprague-Dawley, both sexes, in drinking water, site: any site (literature study), lesion: malignant tumor, dosed 112 weeks, study length 112 weeks): 7.65 mg/kg/day
- TD50 (rat, strain Sprague-Dawley, both sexes, in drinking water, site: liver, lesion: hepatocellular carcinoma, dosed 112 weeks, study length 112 weeks): 8.11 mg/kg/day
